Results published in patent publication US11541028B2, “Peptide pharmaceuticals for treatment of NASH and other disorders” (Mederis Diabetes LLC, priority 2018, dated 2023).
pEC50: −log10 of the molar value. Numbered stars: 1 amine (or outer) side, 2 acyl side, 3 side chain; on linkers, the order of the positions; unused ones are H or OH. Bridge positions count the residues as written; N and C are the ends. Square brackets hold non-standard residues; d marks the D form. Side chains are listed from the residue outwards. Peptide text beside a SMILES is read from it. * marks the point of attachment. βGlcA(1-O-hexadecyl) = CCCCCCCCCCCCCCCCO[C@@H]1O[C@H](C(=O)*)[C@@H](O)[C@H](O)[C@H]1O; εLys = N[C@@H](CCCCN[*:1])C(=O)[*:2]; Aib = CC(C)(N)C(=O)O

What was measured:
human GLP-1 receptor = molecular target: T1, human GLP-1 receptor (Homo sapiens, UniProt P43220); assay: DiscoveRx LeadHunter cellular assay, cAMP stimulation, GLP-1 receptor in CHO cells; format: cell-based; settings: human GLP-1 receptor in CHO cells (DiscoveRx); read-out: EC50 cAMP GLP-1 R
T1 construct: host or cells: CHO cells
T1 sequence (P43220 24-463): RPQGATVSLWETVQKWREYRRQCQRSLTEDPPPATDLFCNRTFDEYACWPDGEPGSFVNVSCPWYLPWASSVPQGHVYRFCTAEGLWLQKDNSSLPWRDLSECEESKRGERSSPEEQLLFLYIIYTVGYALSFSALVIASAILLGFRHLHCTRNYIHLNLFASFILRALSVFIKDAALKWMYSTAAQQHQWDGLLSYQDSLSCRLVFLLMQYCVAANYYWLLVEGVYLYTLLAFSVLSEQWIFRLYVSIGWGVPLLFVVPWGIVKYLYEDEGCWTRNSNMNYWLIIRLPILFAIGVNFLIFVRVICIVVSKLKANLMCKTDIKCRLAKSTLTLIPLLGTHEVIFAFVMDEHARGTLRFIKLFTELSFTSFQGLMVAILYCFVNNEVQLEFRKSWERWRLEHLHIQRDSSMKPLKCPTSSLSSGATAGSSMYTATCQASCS

human glucagon receptor = molecular target: T2, human glucagon receptor (Homo sapiens, UniProt P47871); assay: DiscoveRx LeadHunter cellular assay, cAMP stimulation, glucagon receptor in CHO cells; format: cell-based
T2 construct: host or cells: CHO cells
T2 sequence (P47871 26-477): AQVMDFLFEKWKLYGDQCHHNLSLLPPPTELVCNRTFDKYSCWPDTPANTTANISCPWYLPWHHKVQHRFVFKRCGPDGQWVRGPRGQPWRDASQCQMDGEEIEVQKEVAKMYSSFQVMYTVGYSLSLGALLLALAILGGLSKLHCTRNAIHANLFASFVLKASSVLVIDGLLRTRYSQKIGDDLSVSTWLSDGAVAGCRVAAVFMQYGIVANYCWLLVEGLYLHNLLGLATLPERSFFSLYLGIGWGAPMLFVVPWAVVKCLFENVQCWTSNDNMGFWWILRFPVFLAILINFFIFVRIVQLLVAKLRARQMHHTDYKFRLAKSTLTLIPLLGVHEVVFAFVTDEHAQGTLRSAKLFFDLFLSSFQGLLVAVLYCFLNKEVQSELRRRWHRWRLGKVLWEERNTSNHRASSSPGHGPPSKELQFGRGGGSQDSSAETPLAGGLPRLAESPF

pEC50 (human GLP-1 receptor) | pEC50 (human glucagon receptor) | Structure (SMILES)
10.15 | 8.70 | CCCCCCCCCCCCCCCCO[C@@H]1O[C@H](C(=O)NCCCC[C@H](NC(=O)[C@@H](NC(=O)[C@H](Cc2ccccc2)NC(=O)[C@H](CCC(=O)O)NC(=O)[C@@H]2CCCCNC(=O)CC[C@H](NC(=O)[C@H](CC(=O)O)NC(=O)[C@H](CC(C)C)NC(=O)[C@H](Cc3ccc(O)cc3)NC(=O)[C@H](CCCCN)NC(=O)[C@H](CO)NC(=O)[C@H](Cc3ccc(O)cc3)NC(=O)[C@H](CC(=O)O)NC(=O)[C@H](CO)NC(=O)[C@@H](NC(=O)[C@H](Cc3ccccc3)NC(=O)[C@@H](NC(=O)CNC(=O)[C@H](CCC(N)=O)NC(=O)C(C)(C)NC(=O)[C@@H](N)Cc3c[nH]cn3)[C@@H](C)O)[C@@H](C)O)C(=O)N[C@@H](CCC(N)=O)C(=O)N[C@@H](C)C(=O)N[C@@H](C)C(=O)N2)[C@@H](C)CC)C(=O)N[C@@H](Cc2c[nH]c3ccccc23)C(=O)N[C@@H](CC(C)C)C(=O)N[C@@H](CC(C)C)C(=O)N[C@@H](CCC(N)=O)C(=O)N[C@H](C(=O)NCCOCCOCCOCCOCCC(=O)O)[C@@H](C)O)[C@@H](O)[C@H](O)[C@H]1O [EU-A1635]
10.28 | 9.31 | CCCCCCCCCCCCCCO[C@@H]1O[C@H](C(=O)NCCCC[C@H](NC(=O)[C@@H](NC(=O)[C@H](Cc2ccccc2)NC(=O)[C@H](CCC(=O)O)NC(=O)[C@@H]2CCCCNC(=O)CC[C@H](NC(=O)[C@H](CC(=O)O)NC(=O)[C@H](CC(C)C)NC(=O)[C@H](Cc3ccc(O)cc3)NC(=O)[C@H](CCCCN)NC(=O)[C@H](CO)NC(=O)[C@H](Cc3ccc(O)cc3)NC(=O)[C@H](CC(=O)O)NC(=O)[C@H](CO)NC(=O)[C@@H](NC(=O)[C@H](Cc3ccccc3)NC(=O)[C@@H](NC(=O)CNC(=O)[C@H](CCC(N)=O)NC(=O)C(C)(C)NC(=O)[C@@H](N)Cc3c[nH]cn3)[C@@H](C)O)[C@@H](C)O)C(=O)N[C@@H](CCC(N)=O)C(=O)N[C@@H](C)C(=O)N[C@@H](C)C(=O)N2)[C@@H](C)CC)C(=O)N[C@@H](Cc2c[nH]c3ccccc23)C(=O)N[C@@H](CC(C)C)C(=O)N[C@@H](CC(C)C)C(=O)N[C@@H](CCC(N)=O)C(=O)N[C@H](C(=O)NCCOCCOCCOCCOCCC(=O)O)[C@@H](C)O)[C@@H](O)[C@H](O)[C@H]1O [EU-A1634]
10.22 | 8.51 | CCCCCCCCCCCCCCCCO[C@@H]1O[C@H](C(=O)NCCCC[C@H](NC(=O)[C@H](C)NC(=O)[C@H](C)NC(=O)[C@H](CCC(N)=O)NC(=O)[C@H](CO)NC(=O)[C@H](CC(=O)O)NC(=O)[C@@H]2CCCCNC(=O)CC[C@H](NC(=O)[C@H](CC(=O)O)NC(=O)[C@H](CO)NC(=O)[C@@H](NC(=O)[C@H](Cc3ccccc3)NC(=O)[C@@H](NC(=O)CNC(=O)[C@H](CCC(N)=O)NC(=O)C(C)(C)NC(=O)[C@@H](N)Cc3c[nH]cn3)[C@@H](C)O)[C@@H](C)O)C(=O)N[C@@H](CO)C(=O)N[C@@H](CCCCN)C(=O)N[C@@H](Cc3ccc(O)cc3)C(=O)N2)C(=O)N[C@@H](CCC(=O)O)C(=O)N[C@@H](Cc2ccccc2)C(=O)N[C@H](C(=O)N[C@@H](CCC(=O)O)C(=O)N[C@@H](Cc2c[nH]c3ccccc23)C(=O)N[C@@H](CC(C)C)C(=O)N[C@@H](CC(C)C)C(=O)N[C@@H](CCC(N)=O)C(=O)N[C@H](C(N)=O)[C@@H](C)O)[C@@H](C)CC)[C@@H](O)[C@H](O)[C@H]1O [EU-A1848] (H-H[Aib]QGTFTSDESKYKDSQAAK(βGlcA(1-O-hexadecyl))EFIEWLLQT-NH2; lactam 10-14; N-terminus assumed)
9.68 | 8.90 | CCCCCCCCCCCCCCO[C@@H]1O[C@H](C(=O)NCCCC[C@H](NC(=O)[C@@H](NC(=O)[C@H](Cc2ccccc2)NC(=O)[C@H](CCC(=O)O)NC(=O)[C@@H]2CCCCNC(=O)CC[C@H](NC(=O)[C@H](CC(=O)O)NC(=O)[C@H](CC(C)C)NC(=O)[C@H](Cc3ccc(O)cc3)NC(=O)[C@H](CCCCN)NC(=O)[C@H](CO)NC(=O)[C@H](Cc3ccc(O)cc3)NC(=O)[C@H](CC(=O)O)NC(=O)[C@H](CO)NC(=O)[C@@H](NC(=O)[C@H](Cc3ccccc3)NC(=O)[C@@H](NC(=O)CNC(=O)[C@H](CCC(N)=O)NC(=O)C(C)(C)NC(=O)[C@@H](N)Cc3c[nH]cn3)[C@@H](C)O)[C@@H](C)O)C(=O)N[C@@H](CCC(N)=O)C(=O)N[C@@H](C)C(=O)N[C@@H](C)C(=O)N2)[C@@H](C)CC)C(=O)N[C@@H](Cc2c[nH]c3ccccc23)C(=O)N[C@@H](CC(C)C)C(=O)N[C@@H](CC(C)C)C(=O)N[C@@H](CCC(N)=O)C(=O)N[C@H](C(=O)O)[C@@H](C)O)[C@@H](O)[C@H](O)[C@H]1O [EU-A1682]
11.10 | 10.28 | CCCCCCCCCCCCO[C@@H]1O[C@H](C(=O)NCCCC[C@H](NC(=O)[C@@H](NC(=O)[C@H](Cc2ccccc2)NC(=O)[C@H](CCC(=O)O)NC(=O)[C@@H]2CCCCNC(=O)CC[C@H](NC(=O)[C@H](CC(=O)O)NC(=O)[C@H](CC(C)C)NC(=O)[C@H](Cc3ccc(O)cc3)NC(=O)[C@H](CCCCN)NC(=O)[C@H](CO)NC(=O)[C@H](Cc3ccc(O)cc3)NC(=O)[C@H](CC(=O)O)NC(=O)[C@H](CO)NC(=O)[C@@H](NC(=O)[C@H](Cc3ccccc3)NC(=O)[C@@H](NC(=O)CNC(=O)[C@H](CCC(N)=O)NC(=O)C(C)(C)NC(=O)[C@@H](N)Cc3c[nH]cn3)[C@@H](C)O)[C@@H](C)O)C(=O)N[C@@H](CCC(N)=O)C(=O)N[C@@H](C)C(=O)N[C@@H](C)C(=O)N2)[C@@H](C)CC)C(=O)N[C@@H](Cc2c[nH]c3ccccc23)C(=O)N[C@@H](CC(C)C)C(=O)N[C@@H](CC(C)C)C(=O)N[C@@H](CCC(N)=O)C(=O)N[C@H](C(=O)NCCOCCOCCOCCOCCC(=O)O)[C@@H](C)O)[C@@H](O)[C@H](O)[C@H]1O [EU-A1633]
9.62 | 8.29 | CCCCCCCCCCCCCCCCO[C@@H]1O[C@H](C(=O)NCCCC[C@H](N)C(=O)NCCCC[C@H](NC(=O)[C@H](C)NC(=O)[C@H](C)NC(=O)[C@H](CCC(N)=O)NC(=O)[C@@H]2CCCCNC(=O)CC[C@H](NC(=O)[C@H](CO)NC(=O)[C@H](Cc3ccc(O)cc3)NC(=O)[C@H](CC(=O)O)NC(=O)[C@H](CO)NC(=O)[C@@H](NC(=O)[C@H](Cc3ccccc3)NC(=O)[C@@H](NC(=O)CNC(=O)[C@H](CCC(N)=O)NC(=O)C(C)(C)NC(=O)[C@@H](N)Cc3c[nH]cn3)[C@@H](C)O)[C@@H](C)O)C(=O)N[C@@H](Cc3ccc(O)cc3)C(=O)N[C@@H](CC(C)C)C(=O)N[C@@H](CC(=O)O)C(=O)N2)C(=O)N[C@@H](CCC(=O)O)C(=O)N[C@@H](Cc2ccccc2)C(=O)N[C@H](C(=O)N[C@@H](CCC(N)=O)C(=O)N[C@@H](Cc2c[nH]c3ccccc23)C(=O)N[C@@H](CC(C)C)C(=O)N[C@@H](CC(C)C)C(=O)N[C@@H](CCC(N)=O)C(=O)N[C@H](C(N)=O)[C@@H](C)O)[C@@H](C)CC)[C@@H](O)[C@H](O)[C@H]1O [EU-A1785] (H-H[Aib]QGTFTSDYSEYLDKQAAK([εLys-βGlcA(1-O-hexadecyl)])EFIQWLLQT-NH2; lactam 12-16; N-terminus assumed)
